Reference: EP0248972A2, “Ammoniummonofluorophosphates, process for their preparation and their use” (Benckiser-Knapsack GmbH, priority 1986, dated 1987)

Experiment: Behaviour with water (emulsion formation)
Format: physicochemical
Details: mit Wasser bei 20 C

CCCCCCCC/C=C\CCCCCCCCNCCCN [N-Oleyl-1,3-diammoniumpropanmonofluorophosphat]
Verhalten mit Wasser: stabile Emulsion
